Measurements as given in EP4813992A1, “POLYARYL DERIVATIVE AND USE THEREOF” (Hangzhou HealZen Therapeutics Co., Ltd., priority 2023, dated 2025).

Target: HPK1 kinase (Homo sapiens, UniProt Q92918)
Assay: Lantha screen assay, inhibitory effect on HPK1 kinase
Format: biochemical
Details: initial compound concentration 1 µM
Method: The Lantha screen assay is used to evaluate the inhibitory effect of the compounds on HPK1 kinase. • a) Kinase buffer: 50 mM HEPES (pH 7.5), 10 mM MgCl2, 4 mM DTT, 0.01% Tween-20, 0.01% BSA. • b) Compound Preparation: The compound is diluted with DMSO, and the initial detection concentration of the compound is 1 µM and is diluted to the corresponding concentration. • c) Kinase response and termination: A kinase solution is prepared by adding kinase buffer, the kinase solution and the compound are added to the test plate to be incubated at room temperature for 10 minutes. Fluorescein-PKC and ATP are added to the kinase buffer to form a substrate solution, and 5 µl of the substrate solution is added to the test plate to start the reaction to be incubated at room temperature for 90 minutes; then, 10 µl of a mixture of antibody and EDTA is added to terminate the reaction to be incubated at room temperature for 60 minutes. • d) The date is read by Envision instrument to plot a curve with the Log concentration of the inhibitor as the X-axis and the inhibition rate as the Y-axis, and then the formula Y=Bottom + (Top-Bottom)/(1+(IC50/X)^HillSlope) is used to obtain IC50. Table 1 Inhibitory activity the compounds of the invention on HPK1 kinase

Sequence of HPK1 kinase (Q92918 whole entry): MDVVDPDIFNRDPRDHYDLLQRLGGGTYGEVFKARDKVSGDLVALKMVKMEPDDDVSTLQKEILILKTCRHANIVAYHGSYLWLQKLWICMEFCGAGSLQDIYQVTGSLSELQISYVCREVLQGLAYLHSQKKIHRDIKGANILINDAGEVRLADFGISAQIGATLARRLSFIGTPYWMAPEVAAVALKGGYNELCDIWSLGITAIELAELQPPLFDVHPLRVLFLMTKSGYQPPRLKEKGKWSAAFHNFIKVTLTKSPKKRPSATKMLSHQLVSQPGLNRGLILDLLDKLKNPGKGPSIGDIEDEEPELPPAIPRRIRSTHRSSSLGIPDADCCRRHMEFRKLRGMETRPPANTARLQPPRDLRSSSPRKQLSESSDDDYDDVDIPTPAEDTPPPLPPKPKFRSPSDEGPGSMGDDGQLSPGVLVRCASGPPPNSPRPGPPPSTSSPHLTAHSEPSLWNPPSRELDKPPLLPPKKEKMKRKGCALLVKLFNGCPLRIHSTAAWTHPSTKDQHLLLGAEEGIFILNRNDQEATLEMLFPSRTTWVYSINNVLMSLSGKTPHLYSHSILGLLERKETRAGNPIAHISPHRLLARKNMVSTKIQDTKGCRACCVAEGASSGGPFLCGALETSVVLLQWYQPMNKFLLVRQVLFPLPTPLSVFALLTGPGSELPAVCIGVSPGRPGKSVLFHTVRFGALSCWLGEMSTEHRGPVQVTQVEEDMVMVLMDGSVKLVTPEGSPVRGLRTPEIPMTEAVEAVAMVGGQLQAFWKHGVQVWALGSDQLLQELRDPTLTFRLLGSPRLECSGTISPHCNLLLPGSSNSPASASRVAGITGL

Row | IC50 [µM] | Compound
1 | < 0.01 | Cc1cc(-c2cnc3[nH]cc(-c4ccc(C(=O)N(C)C)c(F)c4)c3n2)cc(C)c1C1=CCN(CC2CN(c3ccc(C(=O)NC4CCC(=O)NC4=O)cc3)C2)CC1 (centres unmarked) [compound 029]
2 | < 0.01 | Cc1cc(NCC2(CN3CC=C(c4c(C)cc(-c5cnc6[nH]cc(-c7ccc(C(=O)N(C)C)cc7)c6n5)cc4C)CC3)CCC2)ccc1N1CCC(=O)NC1=O [compound 041]
3 | < 0.01 | Cc1ccc(C(=O)N2CC(CN3CC=C(c4ccc(-c5cnc6[nH]cc(-c7ccc(C(=O)N(C)C)cc7)c6n5)cc4CN(C)C)CC3)C2)cc1N1CCC(=O)NC1=O [compound 051]
4 | < 0.01 | Cc1cc(N2CC(CN3CC=C(c4c(C)cc(-c5cnc6[nH]cc(-c7cnn(C8CCN(C9CC9)CC8)c7)c6c5)cc4C)CC3)C2)ccc1N1CCC(=O)NC1=O [compound 118]
5 | < 0.01 | Cc1cc(-c2cnc3[nH]cc(-c4ccc(C(=O)N(C)C)cc4)c3n2)cnc1C1=CCN(C2CCN(c3ccc(N4CCC(=O)NC4=O)c(F)c3)C2)CC1 (centres unmarked) [compound 055]
6 | < 0.01 | Cc1cc(-c2cnc3[nH]cc(-c4cnc5[nH]ccc5c4)c3n2)cc(C)c1C1=CCN(C2CN(c3ccc(C(=O)NC4CCC(=O)NC4=O)cc3)C2)CC1 (centres unmarked) [compound 070]
7 | < 0.01 | Cc1cc(-c2c[nH]c3ncc(-c4cc(C)c(C5=CCN(CC6CN(c7ccc(C(=O)NC8CCC(=O)NC8=O)cc7)C6)CC5)c(C)c4)nc23)ccc1C(=O)N1CC2(COC2)C1 (centres unmarked) [compound 050]
8 | < 0.01 | Cc1cc(N2CC(CN3CC=C(c4c(C)cc(-c5cnc(N)c(Oc6ccc(C(=O)N(C)C)cc6)n5)cc4C)CC3)C2)ccc1N1CCC(=O)NC1=O [compound 091]
9 | < 0.01 | Cc1cc(-c2cnc3[nH]cc(-c4ccc(C(=O)N(C)C)cc4)c3n2)cc(C)c1C1=CCN(CC2CN(c3ccc(NC4CCC(=O)NC4=O)nc3)C2)CC1 (centres unmarked) [compound 087]
10 | < 0.01 | Cc1cc(-c2cnc3[nH]cc(-c4ccc(C(=O)N(C)C)cc4)c3n2)cc(C)c1C1=CCN(CC#Cc2ccc(C(=O)NC3CCC(=O)NC3=O)cc2)CC1 (centres unmarked) [compound 026]
11 | < 0.01 | CNc1cc(-c2cnc3[nH]cc(-c4ccc(C(=O)N(C)C)cc4)c3n2)ccc1C1=CCN(CC2CN(c3ccc(N4CCC(=O)NC4=O)c(C)c3)C2)CC1 [compound 131]
12 | < 0.01 | COc1ccc(C(=O)N2CC(CN3CC=C(c4ncc(-c5cnc6[nH]cc(-c7ccc(C(=O)N(C)C)cc7)c6n5)cc4CN(C)C)CC3)C2)cc1N1CCC(=O)NC1=O [compound 053]
13 | < 0.01 | CCN1CCC(n2cc(-c3c[nH]c4ncc(-c5cc(C)c(C6=CCN(CC7CN(c8ccc(C9CCC(=O)NC9=O)cc8)C7)CC6)c(C)c5)nc34)cn2)CC1 (centres unmarked) [compound 056]
14 | < 0.01 | CN(C)C(=O)c1ccc(-c2c[nH]c3ncc(-c4cnc(C5=CCN(CC6CN(c7ccc(C(=O)NC8CCC(=O)NC8=O)cn7)C6)CC5)c(F)c4)nc23)cc1 (centres unmarked) [compound 054]
15 | < 0.01 | CNS(=O)(=O)c1cc(C)cc(-c2cnc(N)c(Oc3cnn(C4CCN(CC5CN(c6ccc(C(=O)NC7CCC(=O)NC7=O)cc6)C5)CC4)c3)n2)c1 (centres unmarked) [compound 090]
16 | < 0.01 | Cc1cc(N2CCC(CN3CC=C(c4c(C)cc(-c5cnc6[nH]cc(-c7ccc(C(=O)N(C)C)cc7)c6n5)cc4C)CC3)C2)ccc1N1CCC(=O)NC1=O (centres unmarked) [compound 123]
17 | < 0.01 | Cc1cc(-c2cnc3[nH]cc(-c4ccc(C(=O)N(C)C)cc4)c3n2)cc(C)c1C1=CCN(CC2CN(C3=CC(=O)N(C4CCC(=O)NC4=O)C3=O)C2)CC1 (centres unmarked) [compound 088]
18 | < 0.01 | COc1ccc(C(=O)N2CCC(CN3CC=C(c4c(C)cc(-c5cnc6scc(-c7ccc(C(=O)N(C)C)cc7)c6n5)cc4C)CC3)C2)cc1N1CCC(=O)NC1=O (centres unmarked) [compound 082]
19 | < 0.01 | Cc1cc(-c2cnc3[nH]cc(-c4ccc(C(=O)N(C)C)cc4)c3n2)cc(C)c1C1=CCN(CC2CC2Nc2ccc(C(=O)NC3CCC(=O)NC3=O)cc2)CC1 (centres unmarked) [compound 036]
20 | < 0.01 | Cc1cc(-c2cnc3[nH]cc(-c4ccc(C(=O)N(C)C)c5ccccc45)c3n2)cc(C)c1C1=CCN(C2CN(c3ncc(C(=O)NC4CCC(=O)NC4=O)o3)C2)CC1 (centres unmarked) [compound 064]
